How the values were obtained:
[1] = system: primary mouse colon fibroblasts; experiment: Inflammatory gene expression (RT-qPCR/RNAseq) in fibroblasts treated with APTKA conditioned medium; format: cell-based; details: APTKA conditioned medium, 24 h, RT-qPCR
Procedure: (A) Schematic illustration of APTKA or APTK organoids supernatant collection and treatment of primary mouse colon fibroblasts of unchallenged wildtype C57BL/6 mice. […] (F) Relative expression analysis by RT-qPCR of inflammatory genes in untreated wildtype and APTKA conditioned medium treated fibroblasts in the presence of IKKß inhibitor ML120B (30 μM) and p38 MAPK inhibitor SB203580 (10 μM) for 24 h (n=4 independent wells per group). Data are mean±SD. p<0.05 by one-way ANOVA followed by Tukey's multiple comparisons test. Representative results from one experiment which has been independently repeated 3 times. (G and H) RNA sequencing analysis of APTKA (n=3) and APTK (n=3) organoids: (G) heat map analysis; (H) differentially expressed cytokines in APTKA (Log 2 fold change≤−1) compared to APTK organoids (log 2 fold Change≥1). p-value<0.05. (I) RT-qPCR analysis of inflammatory genes in APTKA conditioned fibroblasts treated with control IgG, α-IL-1α, α-IL-33, α-TNF-α, α-BAFF or α-CXCL16 neutralizing antibodies (2 μg/mL each) for 24 h (n=4 independent wells per group). Data are mean±SD. **** p<0.0001 by one-way ANOVA followed by Tukey's multiple comparisons test. Experiment performed twice. (J) RNA expression profiles of inflammatory genes in APTKA conditioned fibroblasts stimulated for 24 h then subjected to anakinra (10 μg/mL), APTKA fresh or regular medium treatments for another 24 h (n=4 independent wells per condition). Data are mean±SD; p<0.05 by one-way ANOVA followed by Tukey's multiple comparisons test. Representative results from one experiment which has been independently repeated 2 times.
To examine whether APTK and APTKA tumour organoids differentially affect surrounding fibroblasts in tumours directly in a paracrine manner, supernatants were collected from both tumour organoid lines and treated primary intestinal fibroblasts of unchallenged wildtype mice for 24 hours with the two different tumour-conditioned media ex vivo (FIG. 3A). RNAseq analysis confirmed distinct gene expression patterns in fibroblasts exposed to the two organoid supernatants (FIG. 3B).
The inventors then aimed to identify the upstream factors secreted by APTKA organoids that were responsible for activating NF-κB and p38 in fibroblasts. To this end RNAseq analysis of APTK and APTKA tumour organoids were performed and identified several differentially expressed genes encoding cytokines (FIG. 3G, H). Using neutralizing antibodies, NF-κB and p38 inducing cytokines TNFα, IL-1α, IL-33, BAFF or CXCL16 were blocked in APTKA supernatants and expression of Cxcl1, Cxcl2, Cxcl5 and Ilia as inflammatory marker genes in fibroblasts was examined.
To do so, fibroblasts were stimulated for 24 hours with APTKA conditioned medium before adding anakinra, adding fresh APTKA medium or changing medium to regular medium.

colon fibroblasts [2] = experiment: Nitrite concentration by Griess assay in fibroblast supernatants; format: cell-based, mouse; details: APTKA-conditioned medium plus W1400 1 mM
Procedure: (§1) (A) Schematic illustration of APTKA organoids supernatant collection and treatment of colon fibroblasts from unchallenged wildtype C57BL/6 mice for 12 h followed by 3×2 Gy irradiation. Microscopic, proteomic & transcriptomic analysis were performed 72 h post first irradiation. (B) Microscopic captures of non-irradiated wildtype (WT) and APTKA conditioned fibroblasts. Remaining captures belong to irradiated fibroblasts: WT, IL-1α (1 μg/mL) stimulated WT, and APTKA conditioned media minus or plus anakinra (20 μg/mL) treated fibroblasts. Scale bars=200 μm. (C) Mass spectrometric analysis of matrisome profiles of 3×2 Gy irradiated (n=8) and non-irradiated (n=8) APTKA conditioned fibroblasts. […] (G) Immunoblot analysis of untreated and irradiated APTKA conditioned fibroblasts. Representative results from one experiment which has been independently repeated 2 times. (H) SA-ß gal staining of untreated and irradiated APTKA fibroblasts. Scale bars=100 μm. (I and J) p21 and pH2AX immunofluorescent staining of untreated and irradiated APTKA fibroblasts. Scale bars=[…]. Data are mean±SD. ** […] and *** p<0.001 by t-test. (K) Nitrite concentration determined by Griess assay in conditioned media from WT, APTK media, APTKA media, IL-1α (1 μg/mL) stimulated and APTKA plus anakinra (20 μg/mL) treated fibroblasts for 72 h (n=10 independent wells per group). […]

colon fibroblasts [3] = experiment: Oxidative DNA damage by 8-OHdG immunofluorescence in fibroblasts; format: cell-based, mouse; details: APTKA-conditioned medium plus W1400 1 mM, 72 h
Procedure: as §1

[4] = system: APTKA conditioned fibroblasts; experiment: Senescence induction in fibroblasts treated with APTKA-conditioned medium; format: cell-based, mouse; details: APTKA-conditioned medium plus W1400
Procedure: as §1

APTKA orthotopic tumours = experiment: Orthotopic APTKA organoid model with 5-FU chemotherapy, with or without radiotherapy; format: in vivo, C57BL/6 mice; details: 21 days
Procedure: (§2) FIG. 7: (A) APTKA organoids orthotopic transplantation into C57BL/6 mice followed by 5-fluorouracil (5-FU) chemotherapy (20 mg/Kg/day every 4 days for 21 days—experiment end point). Tumour area (mm3), % invasive area and liver metastasis frequency in untreated and 5-FU treated APTKA tumours (n=2 mice per group). Significant p-value<0.05 by t-test. (B and C) p21, pH2Ax IF and SA-ß gal staining quantifications and representative SA-ß gal staining images among untreated and 5-FU treated IL-1α (1 μg/mL) stimulated human fibroblasts and APTKA conditioned medium treated mouse fibroblasts. Significant p-value<0.05. Results representative of 4 independent experiments. Scale bars=100 μm.
The inventors further investigated, whether therapy resistance of tumours during treatment with cytotoxic chemotherapy is also connected to the senescence behavior of CAFs. For this, the orthotopic APTKA organoid C57BL/6 mice of the inventors' murine model were divided in three groups and subjected to different treatments. The groups consisted of a control group of untreated mice, a second group that was administered 20 mg/kg/day of the cytotoxic chemotherapeutic agent […] (5-FU) every 4 days and a third group that was treated with a therapy based on a concomitant administration of 5-FU and radiation therapy based on a fractionated irradiation schedule (5×2 Gy). After 21 days of treatment, parameters of tumour progression were determined. […] Overall, in vivo administration of the chemotherapy aggravated invasive growth and stimulated formation of liver metastases similarly to irradiation.

[5] = system: APTKA medium conditioned mouse fibroblasts; experiment: p21, pH2AX and SA-βgal staining of APTKA medium conditioned fibroblasts; format: cell-based; details: 5-FU treated vs non-treated
Procedure: as §2
In staining experiments, the inventors quantified the presence of nuclear p21, nuclear phosphorylated H2AX (pH2AX) and SA-βgal in APTKA medium conditioned mouse fibroblasts that were either left untreated or treated with 5-FU. […] (FIG. 7B). Overall, these experiments confirmed a chemotherapy induced senescence of the fibroblasts, when exposed to 5-FU.

[6] = system: IL-1α stimulated human fibroblasts; experiment: p21, pH2AX and SA-βgal staining of IL-1α stimulated fibroblasts; format: cell-based; details: IL-1α 1 μg/mL stimulated, 5-FU treated vs untreated
Procedure: as §2
Moreover, the inventors investigated the influence of chemotherapy on the IL-1α mediated changes to the tumour microenvironment in human cancer patients. Using staining experiments, the upregulation of pH2AX, p21, and SA-βgal in untreated and 5-FU treated IL-1α (1 μg/mL) stimulated human fibroblasts was quantified. […] Thus, targeting IL-1 in combination with chemotherapy may provide a substantial benefit particularly in tumours that are known to contain inflammatory cancer-associated fibroblasts such as pancreatic cancer, breast cancer or head and neck cancers.

[7] = 5-FU only, 20 mg/kg/day every 4 days, vs untreated control
[8] = concomitant 5-FU and radiotherapy (5×2 Gy), vs untreated control

C[S+]([O-])c1ccc(-c2nc(-c3ccncc3)c(-c3ccc(F)cc3)[nH]2)cc1 (centres unmarked) [SB203580]
induction of pro-inflammatory genes (Cxcl1, Cxcl2, Cxcl5, Mmp9, Mmp13, Il1a, 116, Tnfa, Nos2) ([1]; SB203580 10 μM): significantly inhibited the induction of pro-inflammatory genes

COc1c(Cl)cc2c([nH]c3cnccc32)c1NC(=O)c1cccnc1C [ML120B]
induction of pro-inflammatory genes (Cxcl1, Cxcl2, Cxcl5, Mmp9, Mmp13, Il1a, 116, Tnfa, Nos2) ([1]; ML120B 30 μM): significantly inhibited the induction of pro-inflammatory genes

CC(=N)NCc1cccc(CN)c1 [W1400]
nitrite production (colon fibroblasts [2]): blocked nitrite production | oxidative DNA damage (8-OHdG immunofluorescence) (colon fibroblasts [3]): prevented oxidative DNA damage | senescence induction [4]: prevented oxidative DNA damage as well as senescence induction

O=c1[nH]cc(F)c(=O)[nH]1 [5-FU, 5-fluorouracil]
liver metastases (APTKA orthotopic tumours; [7]): have developed liver metastases | tumour area (APTKA orthotopic tumours; [7]): significant increase in tumour area | tumour invasiveness (% invasive area) (APTKA orthotopic tumours; [7]): significant increase in tumour area and tumour invasiveness | liver metastases (APTKA orthotopic tumours; concomitant 5-FU and radiotherapy (5×2 Gy)): every mouse of this group suffered from liver metastases | invasive area (APTKA orthotopic tumours; [8]): significant increase in tumour area and invasive area | tumour area (APTKA orthotopic tumours; [8]): significant increase in tumour area | SA-βgal staining [5]: significant upregulation of SA-βgal | nuclear p21 [5]: significant upregulation of SA-βgal and nuclear p21 | nuclear phosphorylated H2AX (pH2AX) [5]: significant increase of pH2AX | SA-βgal [6]: significant increase of all three biomarkers | p21 [6]: significant increase of all three biomarkers | pH2AX [6]: significant increase of all three biomarkers

— patent US20230365673A1, “MEANS FOR REDUCING RADIO- AND CHEMOTHERAPY RESISTANCE AND ADVERSE EFFECTS” (JOHANN WOLFGANG GOETHE-UNIVERSITÄT FRANKFURT AM MAIN, priority 2020, published 2023)
